This passage reports EC50 and IC50 results from ChEMBL document CHEMBL1127510, “Plant antitumor agents. 31. The calycopterones, a new class of biflavonoids with novel cytotoxicity in a diverse panel of human tumor cell lines” (J Med Chem, 1994).

One assay deals with A-431. In words: In vitro cytotoxicity against epidermoid carcinoma cell line. In kind it is functional, cell-based. The conditions noted are these: Homo sapiens.
In another assay the test system is BC1 cell line. In words: In vitro cytotoxicity against breast cancer cell line. In kind it is functional, cell-based. The conditions noted are these: Homo sapiens.
The next assay concerns Colon carcinoma cell. In words: In vitro cytotoxicity against colon cancer cell line. In kind it is functional, cell-based. The conditions noted are these: Homo sapiens.
A further assay relates to Fibrosarcoma cell line. In words: In vitro cytotoxicity against fibrosarcoma cell line. The conditions noted are these: Homo sapiens. In kind it is functional, cell-based.
A further assay relates to HT-29. In words: Compound was tested for cytotoxicity against colon adenocarcinoma. It is filed as functional, cell-based, Homo sapiens.
The test system of assay [1] is KB. In words: In vitro cytotoxicity against vinblastine resistant KB cell line. The conditions noted are these: Homo sapiens. It is filed as functional, cell-based.
Assay [2] concerns KB. In words: In vitro cytotoxicity against oral epidermoid carcinoma cell line. It is filed as functional, cell-based. The conditions noted are these: Homo sapiens.
The next assay deals with P388. In words: In vitro cytotoxicity against murine lymphoid neoplasm cell line. It is filed as functional, cell-based. The conditions noted are these: Mus musculus.
Assay [3] concerns SK-OV-3. In words: Comparison of cytotoxicity of calycopterone and flavone with doxorubicin against ovarian adenocarcinoma. In kind it is functional, cell-based, Homo sapiens.
For assay [4], the system named is SK-VLB. In words: Compound was tested for cytotoxicity against ovarian adenocarcinoma, multidrug resistant. It is filed as functional, cell-based. The conditions noted are these: Homo sapiens.
In another assay the test system is U373 MG. In words: In vitro cytotoxicity against glioblastoma cell line. It is filed as functional, cell-based, U-373MG ATCC. The conditions noted are these: Homo sapiens.
The subject of a further assay is Lung cancer cell line. In words: In vitro cytotoxicity against lung cancer cell line. It is filed as functional, cell-based. The conditions noted are these: Homo sapiens.
The test system of assay [5] is SK-OV-3. In words: Compound was tested for cytotoxicity against ovarian adenocarcinoma. The conditions noted are these: Homo sapiens.
For assay [6], the system named is SK-VLB. In words: Compound was tested for cytotoxicity against ovarian adenocarcinoma, multidrug resistant. The conditions noted are these: Homo sapiens.

In brackets after ≈: the same amount, converted by molar mass. Several values for one entry are separate records, joined by “and”; a condition that tells them apart may be missing. Identical values can stand only once. Some results are limits rather than exact numbers.

A word on the EC50: it is the concentration giving half of the maximal effect. Low values mean an effect from little substance, high ones a need for much substance. The term IC50 denotes the concentration at which inhibition is half-maximal. Higher therefore signals a need for much substance. With `COC1=C(OC)[C@@]2(OC)c3c(O)c(OC)c4c(c3O[C@@]23O[C@@H](c2ccccc2)CC=C3C1=O)[C@@H](OC)C[C@H](c1ccccc1)O4` [CALYCOPTERONE], the 50% effective concentration (EC50) with A-431 came out at 1 µg/mL (≈ 1.63 µM); with BC1 cell line, 5.4 µg/mL (≈ 8.79 µM); in the assay with Colon carcinoma cell, 0.4 µg/mL (≈ 0.651 µM); in the assay on Fibrosarcoma cell line, 1.8 µg/mL (≈ 2.93 µM); in the assay on KB [1] it was 9.6 µg/mL (≈ 15.6 µM); with KB [2] it was 0.8 µg/mL (≈ 1.3 µM). Moreover, the EC50 with P388 came out at 0.78 µg/mL (≈ 1.27 µM); in the assay on U373 MG it was 0.1 µg/mL (≈ 0.163 µM); with Lung cancer cell line, 1.2 µg/mL (≈ 1.95 µM). In addition, the IC50 was 240 nM and 930 nM with HT-29 (ht-29); 125 nM and 1000 nM with SK-OV-3 [3]; 1900 nM in the assay on SK-VLB [4].

Consider `COc1cccc2c1C(=O)c1c(O)c3c(c(O)c1C2=O)C[C@@](O)(C(=O)CO)C[C@@H]3O[C@H]1C[C@H](N)[C@H](O)[C@H](C)O1` [DOXORUBICIN], for which the concentration for half-maximal inhibition (IC50) in the assay with HT-29 (Homo sapiens, HT-29) is 180 nM; in the assay on SK-OV-3 [5], 43 nM; in the assay with SK-VLB [6], over 10000 nM.

Take `COC1=C(OC)[C@@]2(OC)c3c(OC)c(O)c4c(c3O[C@@]23O[C@@H](c2ccccc2)CC=C3C1=O)[C@@H](OC)C[C@H](c1ccccc1)O4`: the EC50 was found to be 0.4 µg/mL (≈ 0.651 µM) in the assay with A-431; 0.4 µg/mL (≈ 0.651 µM) in the assay on BC1 cell line; 0.3 µg/mL (≈ 0.488 µM) with Colon carcinoma cell; 0.4 µg/mL (≈ 0.651 µM) in the assay with Fibrosarcoma cell line; 0.4 µg/mL (≈ 0.651 µM) in the assay on KB [2]; 0.2 µg/mL (≈ 0.325 µM) in the assay on P388. Further, the EC50 was found to be 0.8 µg/mL (≈ 1.3 µM) with U373 MG and 0.7 µg/mL (≈ 1.14 µM) in the assay with Lung cancer cell line.

For the compound `COc1cc(-c2oc3cc(OC)c(OC)c(O)c3c(=O)c2OC)ccc1O` [CHRYSOSPLENOL B], the EC50 in the assay on A-431 is over 20 µg/mL; in the assay with BC1 cell line, over 20 µg/mL; with Colon carcinoma cell, over 20 µg/mL; with Fibrosarcoma cell line it was 4.2 µg/mL (≈ 11.2 µM); in the assay on KB [1] it was 0.8 µg/mL (≈ 2.14 µM); with KB [2] it was over 20 µg/mL. Also, the 50% effective concentration (EC50) with P388, in the assay on U373 MG and in the assay with Lung cancer cell line was over 20 µg/mL each time. In addition, the IC50 in the assay with HT-29 (Homo sapiens, HT-29) was 14200 nM; in the assay on SK-OV-3 [5], 79000 nM; in the assay on SK-VLB [6], over 133000 nM.

As to `COC1=C(OC)[C@@]2(OC)c3c(O)c(OC)c4c(c3O[C@@]23O[C@@H](c2ccccc2)CC=C3C1=O)[C@@H](O)C[C@H](c1ccccc1)O4`, the EC50 amounted to 0.2 µg/mL (≈ 0.333 µM) in the assay on A-431; 1.4 µg/mL (≈ 2.33 µM) in the assay on BC1 cell line; 0.3 µg/mL (≈ 0.499 µM) in the assay on Colon carcinoma cell; 0.8 µg/mL (≈ 1.33 µM) in the assay on Fibrosarcoma cell line; 8.6 µg/mL (≈ 14.3 µM) with KB [1]; 1.2 µg/mL (≈ 2 µM) in the assay with KB [2]. The concentration giving a half-maximal response (EC50) with P388 was found to be 0.42 µg/mL (≈ 0.699 µM); in the assay on U373 MG, 0.3 µg/mL (≈ 0.499 µM); in the assay with Lung cancer cell line it was 1.6 µg/mL (≈ 2.66 µM).
